# Laboratory results published in patent publication US20190105409A9, “IMAGING AGENTS WITH IMPROVED PHARMACOKINETIC PROFILES” (GE HEALTHCARE AS, priority 2004, published 2019).
# Test: Biodistribution of radiolabelled compounds in a Lewis Lung mouse Carcinoma model
# Assay type: in vivo
# Details: for % ID/g kidney / % ID/g liver: tail vein injection of radiolabelled compound, excretion profile monitored at 5, 30, 60 and 120 minutes (time point not given)
# Protocol: Biodistribution studies were carried out in a Lewis Lung mouse Carcinoma model as described in Bae et al, Drugs Exp Clin Res, 2003; 29 (1): 15-23. Following tail vein injection of the compounds, e the excretion profile was monitored at 5, 30, 60 and 120 minutes.
% ID/g kidney,% ID/g liver,"excretion route / biodistribution in comparison to compounds 2 and 3 (tail vein injection, conclusion from Table 1)",SMILES
7 % ID/g,71 % ID/g,–,O=C(CCN(C1(C(=O)NO)CCCC1)S(=O)(=O)c1ccc(Oc2ccc(F)cc2)cc1)NCCc1ccc(O)c(I)c1 [Compound 2]
20 % ID/g,61 % ID/g,–,NC(=O)C(Cc1ccc(O)c(I)c1)NC(=O)OC(=O)NCCOCCOCCOCCNC(=O)CCN(C1(C(=O)NO)CCCC1)S(=O)(=O)c1ccc(Oc2ccc(F)cc2)cc1 (stereo not shown) [Compound 3]
70 % ID/g,20 % ID/g,preferably excreted via the renal system,NC(=O)C(Cc1ccc(O)c(I)c1)NC(=O)CCOCCOCCOCCOCCOCCOCCOCCOCCOCCOCCOCCOCCNC(=O)CCOCCOCCOCCOCCOCCOCCOCCOCCOCCOCCOCCOCCNC(=O)CCN(C1(C(=O)NO)CCCC1)S(=O)(=O)c1ccc(Oc2ccc(F)cc2)cc1 (stereo not shown) [Compound 4]
